Key:
human MetAP2 enzyme [1] = biological target: T1, human MetAP2 enzyme (Homo sapiens, UniProt P50579); assay: MetAP2 enzyme assay, enzyme complexed with cobalt ions; settings: MetAP2 Co pIC50, MetAP2 enzyme complexed with cobalt ions; Met-AMC substrate at Km
human MetAP2 enzyme [2] = biological target: T1, human MetAP2 enzyme; assay: MetAP2 enzyme assay, enzyme complexed with manganese ions; settings: MetAP2 Mn pIC50, MetAP2 enzyme complexed with manganese ions; Met-AMC substrate at Km

T1 sequence (P50579 whole entry): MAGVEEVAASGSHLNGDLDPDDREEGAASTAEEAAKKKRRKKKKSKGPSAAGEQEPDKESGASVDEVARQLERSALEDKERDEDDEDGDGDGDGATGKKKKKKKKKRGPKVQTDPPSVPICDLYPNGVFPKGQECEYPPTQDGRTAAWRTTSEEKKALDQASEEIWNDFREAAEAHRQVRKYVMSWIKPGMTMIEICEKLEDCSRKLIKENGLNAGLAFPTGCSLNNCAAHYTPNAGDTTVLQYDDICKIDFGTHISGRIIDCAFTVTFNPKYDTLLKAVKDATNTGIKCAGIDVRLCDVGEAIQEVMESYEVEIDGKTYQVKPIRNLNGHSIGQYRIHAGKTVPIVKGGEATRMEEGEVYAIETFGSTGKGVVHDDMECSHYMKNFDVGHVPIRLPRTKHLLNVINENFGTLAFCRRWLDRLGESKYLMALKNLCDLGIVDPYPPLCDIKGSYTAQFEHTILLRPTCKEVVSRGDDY

Structure (SMILES) | IC50 (human MetAP2 enzyme [1]) | IC50 (human MetAP2 enzyme [2])
Cn1cc(-c2cc(C(F)(F)F)cc3[nH]ncc23)ccc1=O [Example 373, 1-methyl-5-(6-(trifluoromethyl)-1H-indazol-4-yl)pyridin-2(1H)-one] | 126 nM | 6.31 nM
NS(=O)(=O)c1ccc(-c2cc(C(F)(F)F)cc3[nH]ncc23)c(Cl)c1 [Example 351, 3-chloro-4-(6-(trifluoromethyl)-1H-indazol-4-yl)benzenesulfonamide] | 39.8 nM | 12.6 nM
OCc1ccccc1-c1cc(C(F)(F)F)cc2[nH]ncc12 [Example 12, (2-(6-(trifluoromethyl)-1H-indazol-4-yl)phenyl)methanol] | 39.8 nM | 3.16 nM
COc1ccc(C)nc1-c1cc(C(F)(F)F)cc2[nH]ncc12 [Example 200, 4-(3-methoxy-6-methylpyridin-2-yl)-6-(trifluoromethyl)-1H-indazole] | 316 nM | 50.1 nM
Cn1cc(-c2cc(C(F)(F)F)cc3[nH]ncc23)c(N)n1 [Example 144, 1-methyl-4-(6-(trifluoromethyl)-1H-indazol-4-yl)-1H-pyrazol-3-amine] | 200 nM | 20 nM
Cc1ncc(-c2cc(C(F)(F)F)cc3[nH]ncc23)n1C [Example 146, 4-(1,2-dimethyl-1H-imidazol-5-yl)-6-(trifluoromethyl)-1H-indazole] | 794 nM | 100 nM
O=C(NCCO)c1ccc(F)c(-c2cc(C(F)(F)F)cc3[nH]ncc23)c1 [Example 360, 4-fluoro-N-(2-hydroxyethyl)-3-(6-(trifluoromethyl)-1H-indazol-4-yl)benzamide] | 39.8 nM | 7.94 nM
COCCOc1ccc(-c2cc(C(F)(F)F)cc3[nH]ncc23)c(C)n1 [Example 362, 4-(6-(2-methoxyethoxy)-2-methylpyridin-3-yl)-6-(trifluoromethyl)-1H-indazole] | 39.8 nM | 15.8 nM
CS(=O)(=O)c1ccc(-c2cc(C(F)(F)F)cc3[nH]ncc23)cc1 [Example 347, 4-(4-(methylsulfonyl)phenyl)-6-(trifluoromethyl)-1H-indazole] | 63.1 nM | 6.31 nM
Nc1ncc(-c2cc(C(F)(F)F)cc3[nH]ncc23)c2cccnc12 [Example 142, 5-(6-(trifluoromethyl)-1H-indazol-4-yl)-1,7-naphthyridin-8-amine] | 25.1 nM | 7.94 nM
FC(F)(F)c1cc(-c2ccncc2Cl)c2cn[nH]c2c1 [Example 49, 4-(3-chloropyridin-4-yl)-6-(trifluoromethyl)-1H-indazole] | 200 nM | 15.8 nM
N#CCOc1ccccc1-c1cc(C(F)(F)F)cc2[nH]ncc12 [Example 93, 2-(2-(6-(trifluoromethyl)-1H-indazol-4-yl)phenoxy)acetonitrile] | 50.1 nM | 10 nM
O=C(NCCO)c1c[nH]c(=O)c(-c2cc(C(F)(F)F)cc3[nH]ncc23)c1 [Example 299, N-(2-hydroxyethyl)-6-oxo-5-(6-(trifluoromethyl)-1H-indazol-4-yl)-1,6-dihydropyridine-3-carboxamide] | 398 nM | 7.94 nM
Cc1cnc(N)c(-c2cc(C(F)(F)F)cc3[nH]ncc23)c1 [Example 193, 5-methyl-3-(6-(trifluoromethyl)-1H-indazol-4-yl)pyridin-2-amine] | 63.1 nM | 6.31 nM
Cc1nc(-n2cnnc2)ccc1-c1cc(C(F)(F)F)cc2[nH]ncc12 [Example 383, 4-(2-methyl-6-(4H-1,2,4-triazol-4-yl)pyridin-3-yl)-6-(trifluoromethyl)-1H-indazole] | 20 nM | 5.01 nM
COc1ncc(-c2cc(C(F)(F)F)cc3[nH]ncc23)cc1C(N)=O [Example 232, 2-methoxy-5-(6-(trifluoromethyl)-1H-indazol-4-yl)nicotinamide] | 63.1 nM | 6.31 nM
Cc1cnc(-c2cc(C(F)(F)F)cc3[nH]ncc23)n1C [Example 162, 4-(1,5-dimethyl-1H-imidazol-2-yl)-6-(trifluoromethyl)-1H-indazole] | 316 nM | 6.31 nM
COc1ccc(CO)cc1-c1cc(C(F)(F)F)cc2[nH]ncc12 [Example 185, (4-methoxy-3-(6-(trifluoromethyl)-1H-indazol-4-yl)phenyl)methanol] | 15.8 nM | 3.98 nM
Cc1[nH]c(=O)ccc1-c1cc(C(F)(F)F)cc2[nH]ncc12 [Example 389, 6-methyl-5-(6-(trifluoromethyl)-1H-indazol-4-yl)pyridin-2(1H)-one] | 50.1 nM | 3.98 nM
FC(F)(F)c1cc(-c2cnc3[nH]ccc3n2)c2cn[nH]c2c1 [Example 240, 2-(6-(trifluoromethyl)-1H-indazol-4-yl)-5H-pyrrolo[2,3-b]pyrazine] | 158 nM | 5.01 nM
O=C(O)Cn1cc(-c2cc(C(F)(F)F)cc3[nH]ncc23)cn1 [Example 261, 2-(4-(6-(trifluoromethyl)-1H-indazol-4-yl)-1H-pyrazol-1-yl)acetic acid] | 1000 nM | 39.8 nM

Structure (SMILES) | IC50 (human MetAP2 enzyme [1]) | IC50 (human MetAP2 enzyme [2])
N#CCc1cccc(-c2cc(C(F)(F)F)cc3[nH]ncc23)c1 [Example 90, 2-(3-(6-(trifluoromethyl)-1H-indazol-4-yl)phenyl)acetonitrile] | 31.6 nM | 3.16 nM
Cc1nc(C#N)ccc1-c1cc(C(F)(F)F)cc2[nH]ncc12 [Example 377, 6-methyl-5-(6-(trifluoromethyl)-1H-indazol-4-yl)picolinonitrile] | 50.1 nM | 5.01 nM
COCc1[nH]nc(C)c1-c1cc(C(F)(F)F)cc2[nH]ncc12 [Example 323, 4-(5-(methoxymethyl)-3-methyl-1H-pyrazol-4-yl)-6-(trifluoromethyl)-1H-indazole] | 10 nM | 12.6 nM
O=C(NCCO)c1ccc(-c2cc(C(F)(F)F)cc3[nH]ncc23)cc1 [Example 130, N-(2-hydroxyethyl)-4-(6-(trifluoromethyl)-1H-indazol-4-yl)benzamide] | 7.94 nM | 1.58 nM
COc1ccc(CC(=O)N2CCOCC2)cc1-c1cc(C(F)(F)F)cc2[nH]ncc12 [Example 316, 2-(4-methoxy-3-(6-(trifluoromethyl)-1H-indazol-4-yl)phenyl)-1-morpholinoethanone] | 50.1 nM | 10 nM
COc1ccc(C(=O)NCCO)cc1-c1cc(C(F)(F)F)cc2[nH]ncc12 [Example 268, N-(2-hydroxyethyl)-4-methoxy-3-(6-(trifluoromethyl)-1H-indazol-4-yl)benzamide] | 39.8 nM | 15.8 nM
FC(F)(F)c1cc(-c2cccnc2)c2cn[nH]c2c1 [Example 19, 4-(pyridin-3-yl)-6-(trifluoromethyl)-1H-indazole] | 63.1 nM | 3.16 nM
OCc1cccc(-c2cc(C(F)(F)F)cc3[nH]ncc23)c1 [Example 8, (3-(6-(trifluoromethyl)-1H-indazol-4-yl)phenyl)methanol] | 39.8 nM | 3.16 nM
Cc1[nH]c(=O)[nH]c(=O)c1-c1cc(C(F)(F)F)cc2[nH]ncc12 [Example 204, 6-methyl-5-(6-(trifluoromethyl)-1H-indazol-4-yl)pyrimidine-2,4(1H,3H)-dione] | 794 nM | 15.8 nM
COCc1ccc(-c2cc(C(F)(F)F)cc3[nH]ncc23)cc1 [Example 48, 4-(4-(methoxymethyl)phenyl)-6-(trifluoromethyl)-1H-indazole] | 50.1 nM | 5.01 nM
FC(F)(F)c1cc(-c2cccnc2OC2CCCC2)c2cn[nH]c2c1 [Example 98, 4-(2-(cyclopentyloxy)pyridin-3-yl)-6-(trifluoromethyl)-1H-indazole] | 39.8 nM | 15.8 nM
FC(F)(F)c1cc(-c2cnc(N3CCOCC3)nc2)c2cn[nH]c2c1 [Example 118, 4-(5-(6-(trifluoromethyl)-1H-indazol-4-yl)pyrimidin-2-yl)morpholine] | 39.8 nM | 6.31 nM
COc1cc(C(=O)N2CCOCC2)ccc1-c1cc(C(F)(F)F)cc2[nH]ncc12 [Example 318, (3-methoxy-4-(6-(trifluoromethyl)-1H-indazol-4-yl)phenyl)(morpholino)methanone] | 39.8 nM | 12.6 nM
FC(F)(F)c1cc(-c2cnn(Cc3ccncc3)c2)c2cn[nH]c2c1 [Example 43, 4-(1-(pyridin-4-ylmethyl)-1H-pyrazol-4-yl)-6-(trifluoromethyl)-1H-indazole] | 79.4 nM | 6.31 nM
CCn1nc(C)c(-c2cc(C(F)(F)F)cc3[nH]ncc23)c1C [Example 168, 4-(1-ethyl-3,5-dimethyl-1H-pyrazol-4-yl)-6-(trifluoromethyl)-1H-indazole] | 25.1 nM | 6.31 nM
NC(=O)c1ccccc1-c1cc(C(F)(F)F)cc2[nH]ncc12 [Example 10, 2-(6-(trifluoromethyl)-1H-indazol-4-yl)benzamide] | 1260 nM | 31.6 nM
Cc1cc(Cn2nc(CO)c(-c3cc(C(F)(F)F)cc4[nH]ncc34)c2C)on1 (single isomer, unassigned) [Example 411, (5-methyl-1-((3-methylisoxazol-5-yl)methyl)-4-(6-(trifluoromethyl)-1H-indazol-4-yl)-1H-pyrazol-3-yl)methanol] | 6.31 nM | 7.94 nM
FC(F)(F)c1cc(-c2ccnc3ccccc23)c2cn[nH]c2c1 [Example 112, 4-(6-(trifluoromethyl)-1H-indazol-4-yl)quinoline] | 50.1 nM | 12.6 nM
FC(F)(F)c1cc(-c2ncn3ccccc23)c2cn[nH]c2c1 [Example 154, 4-(imidazo[1,5-a]pyridin-1-yl)-6-(trifluoromethyl)-1H-indazole] | 100 nM | 15.8 nM
Cc1ccc(-c2cc(C(F)(F)F)cc3[nH]ncc23)c(N)n1 [Example 211, 6-methyl-3-(6-(trifluoromethyl)-1H-indazol-4-yl)pyridin-2-amine] | 25.1 nM | 6.31 nM

— patent publication US9434743B2, “Indazole derivatives” (TAKEDA PHARMACEUTICAL COMPANY LIMITED, priority 2012, dated 2016)
